The record followed here is ChEMBL document CHEMBL1201862, “PubChem BioAssay data set” (2004).

The source made the active and inactive calls.

The target of one assay is T1, Insulin-degrading enzyme (Homo sapiens, UniProt P14735).
T1 sequence (P14735 whole entry): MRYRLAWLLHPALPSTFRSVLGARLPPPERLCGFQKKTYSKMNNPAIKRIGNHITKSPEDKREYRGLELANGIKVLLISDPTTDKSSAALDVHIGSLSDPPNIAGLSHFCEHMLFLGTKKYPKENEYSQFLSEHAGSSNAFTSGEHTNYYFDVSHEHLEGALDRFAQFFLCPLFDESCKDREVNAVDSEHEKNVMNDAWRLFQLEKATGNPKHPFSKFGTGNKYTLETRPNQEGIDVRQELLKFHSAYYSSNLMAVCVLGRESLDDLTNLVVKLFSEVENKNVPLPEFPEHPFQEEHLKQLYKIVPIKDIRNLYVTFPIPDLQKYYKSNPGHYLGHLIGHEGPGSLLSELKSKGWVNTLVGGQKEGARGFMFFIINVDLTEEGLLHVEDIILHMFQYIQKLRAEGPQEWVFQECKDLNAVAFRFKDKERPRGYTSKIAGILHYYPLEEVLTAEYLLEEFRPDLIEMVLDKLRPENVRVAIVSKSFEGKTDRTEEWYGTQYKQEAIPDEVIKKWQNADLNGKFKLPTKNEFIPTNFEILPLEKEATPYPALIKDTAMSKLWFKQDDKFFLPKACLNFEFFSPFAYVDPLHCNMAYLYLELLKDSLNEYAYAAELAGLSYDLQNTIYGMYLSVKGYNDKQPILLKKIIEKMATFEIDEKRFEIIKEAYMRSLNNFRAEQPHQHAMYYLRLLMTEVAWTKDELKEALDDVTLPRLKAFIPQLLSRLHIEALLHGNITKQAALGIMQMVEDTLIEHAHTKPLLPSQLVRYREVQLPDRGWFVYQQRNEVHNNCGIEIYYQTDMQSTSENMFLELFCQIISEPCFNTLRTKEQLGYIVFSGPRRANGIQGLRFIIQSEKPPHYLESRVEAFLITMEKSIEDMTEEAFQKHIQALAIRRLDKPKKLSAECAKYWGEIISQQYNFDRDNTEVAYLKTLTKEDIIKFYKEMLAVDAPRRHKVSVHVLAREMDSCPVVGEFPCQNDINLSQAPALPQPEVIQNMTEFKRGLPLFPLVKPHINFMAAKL
In words: activators of endogenous IDE in HEK cells, dose response, cell-based, fluorescence polarization (AID 588439). In kind it is functional. For orientation: Fluorescence polarisation rises when a labelled molecule tumbles more slowly, as on binding a larger partner.

In the next assay the test system is HEK293. The experiment in a line: HEK cell cytotoxicity by LDH release, dose response, cytotoxicity control for IDE activator project, fluorescence, HEK cells (AID 588440).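 Note: cytotoxicity by LDH release measuring loss of membrane integrity.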 It is filed as functional, cell-based. The conditions noted are these: Homo sapiens.
In the next assay the test system is Streptococcus. In words: Group A Streptococcus viability loss, dose response, counter-screen for streptokinase expression inhibitor project, luminescence, BacTiterGlo (AID 1915).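 Note: potency for reduction of bacterial viability or growth.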 In kind it is functional, organism-based. For orientation: The purpose of a counterscreen is to sort out artefacts and off-target activity.
The next assay has as its system INS1. The experiment in a line: beta cell apoptosis inhibitors, cytokine rescue, dose response, luminescence, retest (AID 449756).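 Note: cell death triggered by IL-1 beta plus TNF-alpha plus IFN-gamma mixture; protective hits raise ATP signal compared with cytokine alone wells.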 The following applies: Rattus norvegicus. In kind it is functional, cell-based.
The nature of assay [1]: inhibitors of firefly luciferase expression or activity, dose response, H4 neuroglioma cells, luminescence (AID 1990). It is filed as functional, cell-based.
Assay [2] can be described thus: Luminescence Cell-Based Dose Response HTS to Identify Inhibitors of 5'UTR Stem-Loop Driven Prion Protein mRNA Translation in H4 Neuroglioblastoma Cells. [Related pubchem assays: 1827 (Project Summary), 1813 (Primary HTS)]. It is filed as functional.
The nature of assay [3]: HEK293T cytotoxicity, dose response, cytotoxicity control for miR-122 modulator project, cell-based, inhibitor set, cherry-pick, set 2 (AID 720697). It is filed as functional.
Assay [4] deals with T2, Serine/threonine-protein phosphatase (Candida dubliniensis (strain CD36 / CBS 7987 / NCPF 3949 / NRRLY-17841) (Yeast), UniProt B9W6M3).
T2 sequence (B9W6M3 whole entry): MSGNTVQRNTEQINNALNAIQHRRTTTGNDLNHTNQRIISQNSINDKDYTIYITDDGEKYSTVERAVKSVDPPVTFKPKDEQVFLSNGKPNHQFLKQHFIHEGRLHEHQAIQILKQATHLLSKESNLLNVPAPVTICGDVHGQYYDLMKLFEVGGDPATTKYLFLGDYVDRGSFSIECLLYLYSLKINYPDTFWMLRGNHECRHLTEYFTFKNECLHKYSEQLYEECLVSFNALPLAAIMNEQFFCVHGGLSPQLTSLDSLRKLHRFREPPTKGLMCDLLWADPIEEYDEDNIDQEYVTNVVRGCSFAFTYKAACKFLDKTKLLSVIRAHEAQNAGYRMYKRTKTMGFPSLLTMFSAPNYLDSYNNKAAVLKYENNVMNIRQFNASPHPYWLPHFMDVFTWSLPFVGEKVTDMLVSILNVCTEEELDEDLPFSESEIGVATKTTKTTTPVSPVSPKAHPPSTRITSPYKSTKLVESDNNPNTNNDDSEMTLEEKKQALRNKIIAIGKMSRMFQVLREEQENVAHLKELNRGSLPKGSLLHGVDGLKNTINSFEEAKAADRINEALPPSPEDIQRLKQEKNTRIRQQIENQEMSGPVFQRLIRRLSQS
The experiment in a line: calcineurin pathway inhibitors in yeast reporter, dose response, S. cerevisiae, CDRE-lacZ, luminescence, secondary (AID 2388).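 Note: yeast reporter cells carrying a calcineurin-responsive lacZ construct stimulated with calcium chloride; luminescent beta-galactosidase reporter signal in whole cells rather than isolated phosphatase activity; potency for inhibition where a drop in reporter signal means calcineurin blockade.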 In kind it is functional, cell-based.

Assay [5] can be described thus: Counterscreen for AddAB inhibitors: absorbance-based bacterial cell-based high throughput dose response assay for inhibitors of bacterial viability. [Related pubchem assays (depositor defined):AID435030, AID449728, AID449731, AID488942, AID488955, AID488956]. It is filed as functional.
The target of the next assay is Phospholipase A2 (Homo sapiens, UniProt P04054). The experiment in a line: PLA2 enzyme inhibitors, dose response, counter-screen for ATG4B inhibitor project, biochemical, set 2 (AID 588586). In kind it is functional.
Chain of Phospholipase A2 (P04054 whole entry): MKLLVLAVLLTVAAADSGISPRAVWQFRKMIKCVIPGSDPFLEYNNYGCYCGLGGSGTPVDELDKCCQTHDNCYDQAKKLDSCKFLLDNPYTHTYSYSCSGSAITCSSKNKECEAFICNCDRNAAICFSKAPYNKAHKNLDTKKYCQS
The nature of assay [6]: HEK293T cytotoxicity, dose response, cytotoxicity control for miR-122 modulator project, cell-based, activator set, cherry-pick (AID 720690).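 Note: HEK293T human cells scored for general mammalian cytotoxicity.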 In kind it is functional.
Another assay addresses Large T antigen (Simian virus 40, UniProt P03070). It is filed as functional, Betapolyomavirus macacae.
The next assay addresses Troponin, cardiac muscle (Homo sapiens, UniProt P19429+P45379+P63316). The experiment in a line: inhibitors of cardiac thin filament calcium sensitivity, dose response, biochemical, fluorescence, cardiac regulated thin filaments, triplicate IC50 (AID 504742). It is filed as protein-complex assay.

Chain of Large T antigen (P03070 whole entry): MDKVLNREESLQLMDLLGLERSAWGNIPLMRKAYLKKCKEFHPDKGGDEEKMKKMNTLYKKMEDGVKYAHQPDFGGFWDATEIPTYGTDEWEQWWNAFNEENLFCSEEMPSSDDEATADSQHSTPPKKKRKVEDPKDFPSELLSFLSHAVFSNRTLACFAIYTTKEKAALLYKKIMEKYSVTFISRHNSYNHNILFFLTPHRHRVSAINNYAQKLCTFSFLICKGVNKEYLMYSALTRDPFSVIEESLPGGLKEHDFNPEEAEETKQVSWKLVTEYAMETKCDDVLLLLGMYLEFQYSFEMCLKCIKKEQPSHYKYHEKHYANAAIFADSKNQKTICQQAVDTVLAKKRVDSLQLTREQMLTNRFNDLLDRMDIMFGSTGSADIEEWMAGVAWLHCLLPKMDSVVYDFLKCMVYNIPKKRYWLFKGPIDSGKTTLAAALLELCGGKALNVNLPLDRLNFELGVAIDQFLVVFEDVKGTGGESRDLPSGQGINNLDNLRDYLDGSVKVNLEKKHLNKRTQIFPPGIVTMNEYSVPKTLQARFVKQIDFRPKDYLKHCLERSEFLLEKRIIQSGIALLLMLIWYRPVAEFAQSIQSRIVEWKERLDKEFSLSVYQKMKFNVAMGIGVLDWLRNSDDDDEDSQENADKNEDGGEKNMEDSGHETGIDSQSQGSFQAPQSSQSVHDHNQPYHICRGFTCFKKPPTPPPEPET

As usually defined, the EC50 is the concentration at which the effect is half-maximal. The term IC50 denotes the concentration that gives 50% inhibition. As for `O=C1CCN2C=Nc3cccc4ccc1c2c34`, at Insulin-degrading enzyme, the EC50 was > 54.7 µM (inactive). Besides, the IC50 with HEK293 was > 89.2 µM (inactive).
What is called AC50 is the midpoint of the concentration-response curve, whichever way the signal moves. On to `Oc1ccc2ccccc2c1/C=N/Nc1nnc(-c2ncc[nH]2)c2ccccc12`, for which the concentration for a half-maximal effect (EC50) in the assay on Streptococcus was 5.84 µM (active); in assay [1], 0.178 µM (active); in [2] it was 0.292 µM (active); in [4] it was > 180 µM (inactive). Moreover, the AC50 in the assay on INS1 is 0.424 µM (active); in assay [3] it was 2.19 µM (active); in assay [6] it was 3.09 µM (active). Further, the figures for the IC50 (in assay [5]; at Phospholipase A2) were > 119 µM (inactive) and 2.47 µM (active), respectively.
On to `CC(C)C(C(=O)O)N1C(=O)/C(=C/C=C/c2ccco2)SC1=S` (stereo not drawn), for which the IC50 at Large T antigen is 24.6 µM (active); at Troponin, cardiac muscle it was 22.4 µM (inactive).
